Reference: patent US9907859B2 (priority 2010, dated 2018)

Experiment: in vivo
Conditions: New Zealand White, rabbit, iv; for clearance: CL

O=C(NN1C(=O)C2C3C=CC(C4CC34)C2C1=O)c1ccc(C(F)(F)F)cc1 (centres unmarked) [ST-246, 4-trifluoromethyl-N-(3,3a,4,4a,5,5a,6,6a-octahydro-1,3-dioxo-4,6-ethenocycloprop[f]isoindol-2(1H)-yl)-benzamide]
AUC(0-t) (1 mg/kg, AUC0-24 hr): 1430 ± 400 ng·h/mL
clearance (1 mg/kg): 27.7 mL/min/kg
Cmax (1 mg/kg, Cmax): 1670 ± 2270 ng/mL
half-life (1 mg/kg, T1/2): 0.9 ± 0.2 h
AUC(0-t) (both, 3 mg/kg, AUC0-24): 2380 ng·h/mL
AUC(0-t) (both, 3 mg/kg, AUC0-24 hr): 2380 ± 930 ng·h/mL
clearance (both, 3 mg/kg): 22.3 mL/min/kg
Cmax (both, 3 mg/kg, Cmax): 3030 ± 370 ng/mL
Cmax (both, 3 mg/kg, mean Cmax): 5790 ng/mL
AUC(0-t) (both, 30 mg/kg, AUC0-24 hr): 13300 ± 700 ng·h/mL
clearance (both, 30 mg/kg): 37.1 mL/min/kg
Cmax (both, 30 mg/kg, Cmax): 38500 ± 3700 ng/mL
half-life (both, 30 mg/kg, T1/2): 12.2 ± 5.8 h
AUC(0-t) (both, 60 mg/kg, AUC0-24 hr): 61800 ± 8700 ng·h/mL
clearance (both, 60 mg/kg): 16.4 mL/min/kg
Cmax (both, 60 mg/kg, Cmax): 94100 ± 11100 ng/mL
half-life (both, 60 mg/kg, T1/2): 5.2 ± 0.8 h
Cmax (both, 60 mg/kg, mean Cmax): 94100 ng/mL
half-life (both, elimination half-lives): 1 to 12.2 h
AUC(0-t) (female, 1 mg/kg, AUC0-24): 1150 ng·h/mL
Cmax (female, 1 mg/kg, Cmax): 679 ng/mL
half-life (female, 1 mg/kg, T1/2): 0.69 h
AUC(0-t) (female, 3 mg/kg, AUC0-24): 3210 ng·h/mL
Cmax (female, 3 mg/kg, Cmax): 3340 ng/mL
AUC(0-t) (female, 30 mg/kg, AUC0-24): 14900 ng·h/mL
Cmax (female, 30 mg/kg, Cmax): 37000 ng/mL
half-life (female, 30 mg/kg, T1/2): 16.3 h
AUC(0-t) (female, 60 mg/kg, AUC0-24): 60100 ng·h/mL
Cmax (female, 60 mg/kg, Cmax): 88200 ng/mL
half-life (female, 60 mg/kg, T1/2): 4.6 h
AUC(0-t) (male, 1 mg/kg, AUC0-24): 1710 ng·h/mL
Cmax (male, 1 mg/kg, Cmax): 769 ng/mL
half-life (male, 1 mg/kg, T1/2): 1.1 h
AUC(0-t) (male, 3 mg/kg, AUC0-24): 1870 ng·h/mL
half-life (male, 3 mg/kg, T1/2): 3.2 h
AUC(0-t) (male, 30 mg/kg, AUC0-24): 16200 ng·h/mL
Cmax (male, 30 mg/kg, Cmax): 40000 ng/mL
half-life (male, 30 mg/kg, T1/2): 8.1 h
AUC(0-t) (male, 60 mg/kg, AUC0-24): 72300 ng·h/mL
Cmax (male, 60 mg/kg, Cmax): 99800 ng/mL
half-life (male, 60 mg/kg, T1/2): 5.7 h
